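Protocol summary: plate cells (96-well), add compound at 5 concentrations, incubate 48 h, interpolate endpoints linearly. The concentration for full growth arrest is given as TGI.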
Experiments:
Assay in all cases: DTP human tumour cell line panel, 48 h
786-0 renal = system: 786-0 renal
A498 renal = system: A498 renal
A549 NSCLC = system: A549 NSCLC
ACHN renal = system: ACHN renal
BT-549 breast = system: BT-549 breast
CAKI-1 renal = system: CAKI-1 renal
CCRF-CEM leukemia = system: CCRF-CEM leukemia
COLO 205 colon = system: COLO 205 colon
DU-145 prostate = system: DU-145 prostate
EKVX NSCLC = system: EKVX NSCLC
HCC-2998 colon = system: HCC-2998 colon
HCT-116 colon = system: HCT-116 colon
HCT-15 colon = system: HCT-15 colon
HL-60(TB) leukemia = system: HL-60(TB) leukemia
HOP-62 NSCLC = system: HOP-62 NSCLC
HOP-92 NSCLC = system: HOP-92 NSCLC
HS 578T breast = system: HS 578T breast
HT29 colon = system: HT29 colon
IGROV1 ovarian = system: IGROV1 ovarian
K-562 leukemia = system: K-562 leukemia
KM12 colon = system: KM12 colon
LOX IMVI melanoma = system: LOX IMVI melanoma
M14 melanoma = system: M14 melanoma
MALME-3M melanoma = system: MALME-3M melanoma
MCF7 breast = system: MCF7 breast
MDA-MB-231 breast = system: MDA-MB-231 breast
MDA-MB-435 = system: MDA-MB-435
MDA-N = system: MDA-N
MOLT-4 leukemia = system: MOLT-4 leukemia
NCI-H23 lung = system: NCI-H23 lung
NCI-H460 lung = system: NCI-H460 lung
NCI-H522 lung = system: NCI-H522 lung
NCI/ADR-RES ovarian = system: NCI/ADR-RES ovarian
OVCAR-3 ovarian = system: OVCAR-3 ovarian
OVCAR-4 ovarian = system: OVCAR-4 ovarian
OVCAR-5 ovarian = system: OVCAR-5 ovarian
OVCAR-8 ovarian = system: OVCAR-8 ovarian
PC-3 prostate = system: PC-3 prostate
RPMI-8226 leukemia = system: RPMI-8226 leukemia
RXF 393 renal = system: RXF 393 renal
SF-268 CNS = system: SF-268 CNS
SF-295 CNS = system: SF-295 CNS
SF-539 CNS = system: SF-539 CNS
SK-MEL-2 melanoma = system: SK-MEL-2 melanoma
SK-MEL-28 melanoma = system: SK-MEL-28 melanoma
SK-MEL-5 melanoma = system: SK-MEL-5 melanoma
SK-OV-3 ovarian = system: SK-OV-3 ovarian
SN12C renal = system: SN12C renal
SNB-19 CNS = system: SNB-19 CNS
SNB-75 CNS = system: SNB-75 CNS
SR leukemia = system: SR leukemia
SW-620 colon = system: SW-620 colon
T-47D breast = system: T-47D breast
TK-10 renal = system: TK-10 renal
U251 CNS = system: U251 CNS
UACC-62 melanoma = system: UACC-62 melanoma
UO-31 renal = system: UO-31 renal
NCI-H226 lung = system: NCI-H226 lung
UACC-257 melanoma = system: UACC-257 melanoma

Work on `Oc1c(Nc2ccccc2)cc2c3c1N=NC=3CCN=2` yielded a TGI (786-0 renal) greater than 100 µM, a TGI (A498 renal) greater than 100 µM and a TGI (A549 NSCLC) greater than 100 µM. For the same compound, the TGI (ACHN renal) was greater than 100 µM, the TGI (BT-549 breast) was greater than 100 µM and the TGI (CAKI-1 renal) was greater than 100 µM. It also gave a TGI (CCRF-CEM leukemia) of 93.9 µM, a TGI (COLO 205 colon) greater than 100 µM and a TGI (DU-145 prostate) greater than 100 µM. The TGI (EKVX NSCLC) was greater than 100 µM, the TGI (HCC-2998 colon) was greater than 100 µM and the TGI (HCT-116 colon) was 44.4 µM. For the same compound, the TGI (HCT-15 colon) was greater than 100 µM, the TGI (HL-60(TB) leukemia) was 53.2 µM and the TGI (HOP-62 NSCLC) was greater than 100 µM. The TGI (HOP-92 NSCLC) was greater than 100 µM, the TGI (HS 578T breast) was greater than 100 µM and the TGI (HT29 colon) was greater than 100 µM. It also gave a TGI (IGROV1 ovarian) greater than 100 µM, a TGI (K-562 leukemia) greater than 100 µM and a TGI (KM12 colon) greater than 100 µM. It also gave a TGI (LOX IMVI melanoma) of 46.6 µM, a TGI (M14 melanoma) greater than 100 µM and a TGI (MALME-3M melanoma) of 29.1 µM. The TGI (MCF7 breast) was 69 µM, the TGI (MDA-MB-231 breast) was greater than 100 µM and the TGI (MDA-MB-435) was 31 µM. For the same compound, the TGI (MDA-N) was 31.7 µM, the TGI (MOLT-4 leukemia) was 87.3 µM and the TGI (NCI-H23 lung) was greater than 100 µM. The TGI (NCI-H460 lung) was greater than 100 µM, the TGI (NCI-H522 lung) was greater than 100 µM and the TGI (NCI/ADR-RES ovarian) was greater than 100 µM. The TGI (OVCAR-3 ovarian) was greater than 100 µM, the TGI (OVCAR-4 ovarian) was greater than 100 µM and the TGI (OVCAR-5 ovarian) was greater than 100 µM. For the same compound, the TGI (OVCAR-8 ovarian) was 59.8 µM, the TGI (PC-3 prostate) was greater than 100 µM and the TGI (RPMI-8226 leukemia) was greater than 100 µM. For the same compound, the TGI (RXF 393 renal) was greater than 100 µM, the TGI (SF-268 CNS) was greater than 100 µM and the TGI (SF-295 CNS) was greater than 100 µM. The TGI (SF-539 CNS) was greater than 100 µM, the TGI (SK-MEL-2 melanoma) was greater than 100 µM and the TGI (SK-MEL-28 melanoma) was greater than 100 µM. For the same compound, the TGI (SK-MEL-5 melanoma) was 33.1 µM, the TGI (SK-OV-3 ovarian) was greater than 100 µM and the TGI (SN12C renal) was greater than 100 µM. The TGI (SNB-19 CNS) was greater than 100 µM, the TGI (SNB-75 CNS) was greater than 100 µM and the TGI (SR leukemia) was greater than 100 µM. It also gave a TGI (SW-620 colon) greater than 100 µM, a TGI (T-47D breast) greater than 100 µM and a TGI (TK-10 renal) greater than 100 µM. It also gave a TGI (U251 CNS) greater than 100 µM, a TGI (UACC-62 melanoma) of 49.2 µM and a TGI (UO-31 renal) greater than 100 µM.
For `COCN1C(=O)[C@@H]2CCCN2C(=O)c2ccc(Cl)cc21`, the TGI (786-0 renal) was greater than 100 µM, the TGI (A498 renal) was greater than 100 µM and the TGI (A549 NSCLC) was greater than 100 µM. For the same compound, the TGI (ACHN renal) was greater than 100 µM, the TGI (BT-549 breast) was greater than 100 µM and the TGI (CAKI-1 renal) was greater than 100 µM. For the same compound, the TGI (COLO 205 colon) was greater than 100 µM, the TGI (DU-145 prostate) was greater than 100 µM and the TGI (EKVX NSCLC) was greater than 100 µM. It also gave a TGI (HCC-2998 colon) greater than 100 µM, a TGI (HCT-116 colon) greater than 100 µM and a TGI (HCT-15 colon) greater than 100 µM. The TGI (HL-60(TB) leukemia) was greater than 100 µM, the TGI (HOP-62 NSCLC) was greater than 100 µM and the TGI (HOP-92 NSCLC) was greater than 100 µM. The TGI (HS 578T breast) was greater than 100 µM, the TGI (HT29 colon) was greater than 100 µM and the TGI (IGROV1 ovarian) was greater than 100 µM. It also gave a TGI (K-562 leukemia) greater than 100 µM, a TGI (KM12 colon) greater than 100 µM and a TGI (LOX IMVI melanoma) greater than 100 µM. For the same compound, the TGI (M14 melanoma) was greater than 100 µM, the TGI (MALME-3M melanoma) was greater than 100 µM and the TGI (MCF7 breast) was greater than 100 µM. It also gave a TGI (MDA-MB-231 breast) greater than 100 µM, a TGI (MDA-MB-435) greater than 100 µM and a TGI (MDA-N) greater than 100 µM. For the same compound, the TGI (MOLT-4 leukemia) was greater than 100 µM, the TGI (NCI-H226 lung) was greater than 100 µM and the TGI (NCI-H23 lung) was greater than 100 µM. The TGI (NCI-H460 lung) was greater than 100 µM, the TGI (NCI-H522 lung) was greater than 100 µM and the TGI (NCI/ADR-RES ovarian) was greater than 100 µM. For the same compound, the TGI (OVCAR-4 ovarian) was greater than 100 µM, the TGI (OVCAR-5 ovarian) was greater than 100 µM and the TGI (OVCAR-8 ovarian) was greater than 100 µM. The TGI (PC-3 prostate) was greater than 100 µM, the TGI (RPMI-8226 leukemia) was greater than 100 µM and the TGI (RXF 393 renal) was greater than 100 µM. For the same compound, the TGI (SF-268 CNS) was greater than 100 µM, the TGI (SF-295 CNS) was greater than 100 µM and the TGI (SK-MEL-2 melanoma) was greater than 100 µM. It also gave a TGI (SK-MEL-28 melanoma) greater than 100 µM, a TGI (SK-OV-3 ovarian) greater than 100 µM and a TGI (SN12C renal) greater than 100 µM. For the same compound, the TGI (SNB-19 CNS) was greater than 100 µM, the TGI (SNB-75 CNS) was greater than 100 µM and the TGI (SR leukemia) was greater than 100 µM. For the same compound, the TGI (SW-620 colon) was greater than 100 µM, the TGI (T-47D breast) was greater than 100 µM and the TGI (TK-10 renal) was greater than 100 µM. For the same compound, the TGI (U251 CNS) was greater than 100 µM, the TGI (UACC-257 melanoma) was greater than 100 µM and the TGI (UACC-62 melanoma) was greater than 100 µM. For the same compound, the TGI (UO-31 renal) was greater than 100 µM.

Reference: PubChem BioAssay (NCI)
